These results are taken from the METLIN SMRT retention time set (Domingo-Almenara et al. 2019).

SMILES strings stand for the structures.

This data set in a line: gradient 5% acetonitrile 3 min, to 50% in 2 min, to 85% in 15 min, held 3 min, 100 µL/min. The following applies: column: Zorbax Extend-C18 2.1 x 50 mm; eluents: water / acetonitrile, 0.1% formic acid. The gist of the method: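 In both positive and negative ionization mode, a quadrupole time-of-flight mass spectrometer coupled to HPLC analyzed pure standards run in mixtures of ~100 molecules. The Zorbax Extend-C18 column (2.1 × 50 mm, 1.8 μm) was operated at 100 μL/min with water and acetonitrile, each containing 0.1% formic acid. The dead volume was 40 μL and the dwell volume 900 μL. Retention time came from adduct peaks that were computationally picked and individually inspected by hand.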
For the molecule `CC1=C(c2cccc(Cl)c2)S(=O)(=O)N=C1N1CCCN(C(=O)c2cccs2)CC1`, the RP-LC retention time is 860 s. The molecule `CCn1cc(CN2CC(F)(F)C[C@H]2COc2ccncc2)c2ccccc21` returned an RP-LC retention time of 670 s. `Cc1nc2cccnc2n1C1CCN(C(=O)C2CCCCC2)C1` (stereo not given) had an RP-LC retention time of 591 s.

In the case of `Cc1ccc2c(NCc3ccc4c(c3)OCO4)c(-c3nc(C)no3)cnc2n1`, the RP-LC retention time was determined as 1070 s. Consider `COc1ccc(-c2noc(N3CCC(N4CCCCC4)CC3)n2)cc1OC`, for which the RP-LC retention time is 590 s. For `Cc1ccc(Nc2cc(C)nc(N3CCN(C(=O)Nc4cccc(Cl)c4)CC3)n2)cc1` the value was 800 s; for `COc1ccccc1-c1nc2cnccn2c1NCCC(=O)NC1CCCC1`, 618 s; for `Cn1c(CN2CCN(C(=O)Nc3ccccc3C(F)(F)F)CC2)nc2ccccc21`, 558 s. Molecule `Clc1ccc(CNc2nnc(N3CCOCC3)c3ccccc23)cc1` returned an RP-LC retention time of 693 s. For `Cc1ccc(CNC(=O)c2[nH]c(C)c(S(=O)(=O)N3CCCC3)c2C)cc1` the value was 851 s; for `COc1ccc(NC(=O)N2CCC3(CC2)NC(=O)c2ccccc2N3C)c(C)c1`, 781 s; for `CCc1cccc(NS(=O)(=O)c2cc(-c3[nH]ncc3C(=O)N3CCCC3)oc2C)c1`, 760 s. For `CC1(C)CC(=O)C2=C(C1)N(CC1CCCO1)C(=O)C2(NC(=O)c1ccc(Cl)cc1)C(F)(F)F` (stereo not given) the value was 975 s. For `c1ccc(-c2nnc(-c3ccc(-n4ccnc4)nc3)o2)cc1` the value was 639 s. For `CCSc1ccccc1C(=O)NCCS(=O)(=O)N1CCc2ccccc2C1`, the RP-LC retention time is 862 s.

`CCCNC(=O)N1CCCC1c1nc(-c2ccccc2C)no1` (stereo not given) had an RP-LC retention time of 863 s.

Turning to `COCCNC(=O)C(=O)NCC1(c2ccc(F)cc2)CCOCC1`, the RP-LC retention time was found to be 676 s. As for `CCc1noc(NC(C)=O)c1-c1ccc(OC)c(S(=O)(=O)Nc2cccc(C#N)c2)c1`, the RP-LC retention time was 738 s. For the molecule `COc1cc(N2CCN(C(=O)c3cnccn3)CC2)nc(C)n1`, the RP-LC retention time came to 515 s. For `O=C1NCCCn2cc(S(=O)(=O)Nc3ccc(Cl)cc3F)cc21` the value was 678 s. The molecule `COc1ccc(C)cc1NC(=O)Cn1nc(C(=O)N2CCN(C)CC2)cc1C` came in with an RP-LC retention time of 583 s. For `CCCCS(=O)(=O)Nc1ccc2c(c1)nc(-c1ccc(C(=O)NCCC)cc1)n2C` the value was 660 s. For `Cc1ccccc1N1C(=O)CN(S(=O)(=O)c2ccccc2)CC1(C)C(=O)NC1CCCC1` (stereo not given) the value was 920 s.

Molecule `CC(C)c1cc(C2CCCN2C(=O)NC(C)(C)C)on1` (stereo not given) returned an RP-LC retention time of 835 s. Consider `O=C(c1ccoc1)N1CCCC(c2ccnc(-c3ccccc3)n2)C1` (stereo not given), for which the RP-LC retention time is 892 s.

Molecule `O=C(NCc1cccs1)C(=O)NCC1(c2cccs2)CC1` had an RP-LC retention time of 860 s. For `COc1ccc(C)cc1NC(=O)N1CCc2cn(C)c3cccc(c23)C1` the value was 822 s. As for `CN(C(=O)Cn1nc2n(c1=O)CCCC2)c1ccccc1`, the RP-LC retention time was 632 s. On to `NC(=O)C1CCN(C2CC(=O)N(c3cccc(F)c3)C2=O)CC1` (stereo not given), for which the RP-LC retention time came to 582 s. Molecule `Cc1ccc(-c2nc3cc(C)ccn3c2Nc2ccccc2C)cc1` displayed an RP-LC retention time of 770 s.

`CCCCC(=O)Nc1nc(-c2ccc3c(c2)N(CCC)C(=O)CO3)cs1` yielded an RP-LC retention time of 1010 s. For `COc1ccc(S(=O)(=O)NC2CCN(C(=O)CCc3c[nH]c4ccccc34)CC2)cc1` the value was 788 s; for `COCc1nc2cccnc2n1C1CCN(C(=O)Nc2ccccc2C(=O)OC)CC1`, 784 s; for `CCOC(=O)c1ccccc1NC(=O)Cn1cccc(-c2nc(-c3ccc(Cl)cc3)no2)c1=O`, 1160 s. Molecule `Cc1cc(CN2CCC(CNC(=O)C(=O)NCc3ccccc3Cl)CC2)c(C)o1` had an RP-LC retention time of 592 s.

Take `CCN(C(=O)C1CCCN(c2ncnc3c2nc2n3CCCCC2)C1)c1cccc(Cl)c1` (stereo not given): the RP-LC retention time worked out at 912 s. As to `O=C(NCc1cc(F)cc(F)c1)C1CCN(c2cncnc2N2CCCCC2)CC1`, the RP-LC retention time amounted to 700 s. As for `CCn1cc(C(=O)NCc2ccccc2F)c(S(=O)(=O)N2CCSCC2)n1`, the RP-LC retention time is 901 s. For `Cc1nc(Cn2cccc2C(=O)Nc2ccc(F)cc2)no1` the value was 815 s.

As to `CC1(C(=O)NC2CCCCCC2)CN(S(C)(=O)=O)CC(=O)N1Cc1cccc(F)c1` (stereo not given), the RP-LC retention time was 885 s. Turning to `CCN(CC)c1ncc2c(n1)CCC(C(=O)NCc1nc3ccccc3n1C)C2` (stereo not given), the RP-LC retention time worked out at 537 s. For `COc1ccc(S(=O)(=O)N2CCCC(c3nnnn3C)C2)cc1` (stereo not given) the value was 744 s; for `Cc1ccc(C(=O)N2CCN(c3nc(CN4CCOCC4)cs3)CC2)cc1F`, 629 s. `O=C1CC(NC(=O)C2(c3ccccc3)CCOCC2)CN1C1CC1` (stereo not given) yielded an RP-LC retention time of 621 s.

In turn, `COc1ccc(CN(Cc2ccccc2)Cc2cc(=O)n3ccc(C)cc3n2)cc1` registered an RP-LC retention time of 681 s. For `CCc1nnc(NC(=O)CSc2nc3c(c(=O)n2CCOC)SC(C)C3)s1` (stereo not given) the value was 664 s; for `O=c1ccc(N2CCCN(S(=O)(=O)c3cccc(Cl)c3)CC2)nn1-c1ccccc1`, 868 s; for `CCC(=O)N(C1CCOCC1)C1CCN(Cc2cn(CC)c3ccccc23)CC1`, 674 s. For the molecule `CC(C)c1nc(C2CN(C(=O)Nc3ccc(Cl)cc3)C2)n(C)n1`, the RP-LC retention time was 704 s. For `COc1cc(O)c(C(=O)/C=C/c2ccccc2)c(OC)c1` the value was 1220 s.

On to `COC[C@@H]1CN(S(=O)(=O)c2cccc(F)c2)C[C@H]1c1ccccn1`, for which the RP-LC retention time was 639 s. For `CCN1CCCn2cc(S(=O)(=O)NCc3ccc(C)o3)cc2C1=O` the value was 676 s. `CCOC(=O)c1ccc(NC(=O)NCC2CCN(Cc3ccc(C)cc3)C2)cc1` (stereo not given) gave an RP-LC retention time of 688 s. Take `CCCn1cc(C(=O)NCCCOCC)c(S(=O)(=O)N2CCN(c3cccc(Cl)c3)CC2)n1`: the RP-LC retention time is 1110 s.

The molecule `Cc1ccc(Sc2nccnc2N2CCCC(C(=O)NC3CCCCCC3)C2)cc1` (stereo not given) came in with an RP-LC retention time of 1250 s. For `COc1cc2c3c(c1OC)-c1cc4c(cc1CC3(C#N)N(C(=O)c1ccccc1)CC2)OCO4` (stereo not given) the value was 987 s; for `CC(C)C(=O)Nc1nc(-c2ccc3c(c2)N(C)C(=O)C(C)O3)cs1` (stereo not given), 822 s.

`COC(=O)c1ccc(OC(=O)N(C)c2ccccc2)cc1` registered an RP-LC retention time of 879 s. Consider `CC(C)c1ccc(-c2nc(-c3cccc(-c4ccnn4C)c3)no2)cc1`, for which the RP-LC retention time was determined as 1390 s. For `COC(=O)c1ncn2c1C(=O)N(c1ccc(F)cc1C)C(C)(C(=O)NCc1ccccc1)C2` (stereo not given) the value was 708 s; for `Cn1ccnc1SCC(=O)c1ccc([N+](=O)[O-])cc1`, 549 s. For `Cc1ccc2[nH]cc(CCNC(=O)COc3ccc(Cl)cc3)c2c1` the value was 955 s. In turn, `CCOC(=O)c1ccc(N2C=C(C#N)S(=O)(=O)c3ccc(C)cc32)cc1` gave an RP-LC retention time of 978 s.

`O=C(Cn1cccn1)NCc1ccc(OCc2ccccc2)cc1`: the RP-LC retention time came out at 776 s. In the case of `CCn1c(CCNC(=O)c2ccc(OC)cc2C)nc2cccnc21`, the RP-LC retention time is 733 s. For `COc1ccc(NC(=O)Cn2nc(N3CCCC3)c3ccccc3c2=O)cc1` the value was 847 s. For `O=C(c1cc(Cl)ccc1F)N1CCC(c2nc(C3CC3)n[nH]2)CC1` the value was 611 s; for `O=S(=O)(c1ccc2c(c1)-c1oncc1CO2)N1CCN(c2ccccc2)CC1`, 1030 s; for `COc1ccccc1Cn1cc(C(=O)c2ccccc2)c(=O)c2cc3c(cc21)OCCO3`, 815 s. In the case of `COc1ccc(S(=O)(=O)Nc2cc(-c3cn4ccc(C)cc4n3)ccc2C)cc1OC`, the RP-LC retention time is 652 s. For `COCCCNC(=O)C1CCN(Cc2cc3ccccc3n2Cc2ccccc2C)CC1` the value was 718 s. `COc1ccc2c(c1)C=C(C(=O)N(C)c1ccccc1)C=CO2`: the RP-LC retention time was determined as 1030 s. Regarding `COc1cccc2sc(N3CCCCC3)nc12`, the RP-LC retention time was found to be 821 s. For `O=C(NC1CCCCC1)N1CCC(c2noc(-c3ccccn3)n2)C1` (stereo not given) the value was 734 s; for `Cc1ccc2c(NCc3ccc(Cl)cc3)c(-c3nc(C)no3)cnc2n1`, 727 s; for `CCc1noc(-c2cnc3nc(C)ccc3c2Nc2ccc3c(c2)OCCO3)n1`, 731 s. For `CCOc1ccc(-c2csc(NC(=O)CCCOc3ccc(OC)cc3)n2)cc1` the value was 1080 s; for `Cc1ccccc1CN1CCN(CC(=O)N2CCN(Cc3ccccc3)CC2)C(=O)C1=O`, 609 s. Regarding `CC(C)c1ccc(S(=O)(=O)N2CCN(c3cnn4cnnc4c3)CC2)cc1`, the RP-LC retention time was 795 s. Consider `O=c1c2ccccc2n(Cc2nc(-c3cccc(Br)c3)no2)c(=O)n1CC1CCCO1` (stereo not given), for which the RP-LC retention time amounted to 1150 s.
